In ChEMBL document CHEMBL5036361, “Structurally Diverse Sesquiterpenoid Glycoside Esters from Pittosporum qinlingense with Anti-neuroinflammatory Activity” (J Nat Prod, 2022):
Active and inactive are the calls of the source. The calls are words filed in the database; no cut-off is given here.

Columns and labels:
BV-2 [1] = assay: Antineuroinflammatory activity against mouse BV-2 cells assessed as inhibition of LPS-induced NO production incubated for 24 hrs by Griess assay; type: functional, cell-based; conditions: BV-2, 24 h
BV-2 [2] = assay: Cytotoxicity against mouse BV-2 cells at 6.25 to 100 uM after 24 hrs by MTT assay; type: cell-based; conditions: bv-2, 24 h, dose 6.25-100 µM
BV-2 [3] = assay: Downregulation of LPS-induced COX-2 expression in mouse BV-2 cells at 1.25 to 10 uM preincubated for 1 hr followed by LPS stimulation for 24 hrs by western blot analysis; type: functional, cell-based; conditions: dose 1.25-10 µM
BV-2 [4] = assay: Downregulation of LPS-induced iNOS expression in mouse BV-2 cells at 1.25 to 10 uM preincubated for 1 hr followed by LPS stimulation for 24 hrs by western blot analysis; type: functional, cell-based; conditions: dose 1.25-10 µM

IC50 (BV-2 [1]) [µM] | SMILES | Activity (BV-2 [2]) | Activity (BV-2 [3]) | Activity (BV-2 [4])
17.6 | CC(=O)O[C@H]1[C@H](O[C@]2(C)CC[C@@H]3[C@H]([C@@H]4[C@H](C)CC[C@@H]42)C3(C)C)O[C@H](C)[C@H](O)[C@@H]1OC(=O)/C=C(/C)CO | Non-Toxic |  | 
0.95 | CC(=O)O[C@@H]1[C@H](OC(=O)C=C(C)C)[C@@H](OC(C)=O)[C@H](O[C@@]2(C)CC[C@@H]3[C@H]([C@@H]4[C@H](C)CC[C@@H]42)C3(C)C)O[C@@H]1C | Non-Toxic | Active | Active
1.43 | C/C=C(/C)C(=O)O[C@H]1[C@@H](O)[C@@H](C)O[C@@H](O[C@]2(C)CC[C@@H]3[C@H]([C@@H]4[C@H](C)CC[C@@H]42)C3(C)C)[C@@H]1OC(C)=O | Non-Toxic |  | 
24.1 | C/C=C(/C)C(=O)O[C@@H]1[C@@H](OC(C)=O)[C@H](O[C@]2(C)CC[C@@H]3[C@H]([C@@H]4[C@H](C)CC[C@@H]42)C3(C)C)OC[C@H]1O | Non-Toxic |  | 
4.95 | CC(=O)O[C@H]1[C@H](O[C@@]2(C)CC[C@@H]3[C@H]([C@@H]4[C@H](C)CC[C@@H]42)C3(C)C)O[C@H](C)[C@H](O)[C@@H]1OC(=O)C=C(C)C | Non-Toxic | Active | Active
> 50 | CCC(C)C(=O)O[C@H]1[C@@H](O)[C@@H](C)O[C@@H](O[C@]2(C)CC[C@@H]3[C@H]([C@@H]4[C@H](C)CC[C@@H]42)C3(C)C)[C@@H]1OC(C)=O (some centres not stated) | Non-Toxic |  | 
0.97 | C/C=C(/C)C(=O)O[C@H]1[C@@H](OC(C)=O)[C@@H](C)O[C@@H](O[C@]2(C)CC[C@@H]3[C@H]([C@@H]4[C@H](C)CC[C@@H]42)C3(C)C)[C@@H]1OC(C)=O | Non-Toxic | Active | inactive

The next lines start with the compound.

SMILES | IC50 (BV-2 [1]) [µM] | Activity (BV-2 [2]) | Activity (BV-2 [3]) | Activity (BV-2 [4])
C[C@@H]1CC[C@H]2[C@@H]1[C@H]1[C@@H](CC[C@@]2(C)O[C@@H]2O[C@H](C)[C@H](O)[C@H](O)[C@H]2O)C1(C)C | > 50 | Non-Toxic |  | 
C/C=C(\C)C(=O)O[C@H]1[C@@H](O)[C@@H](C)O[C@@H](O[C@H]2C[C@@](C)(O)[C@H]3CC[C@](C)(O)[C@H]3[C@H]3[C@@H]2C3(C)C)[C@@H]1OC(C)=O | > 50 | Non-Toxic |  | 
CC1(C)[C@H]2[C@H]3[C@@H](CC[C@@]3(C)O)[C@](C)(O)CC[C@H]21 | > 50 | Non-Toxic |  | 
C=C1CC[C@@H](O)[C@]2(C)CC[C@@H](C(C)(C)O[C@@H]3O[C@H](C)[C@H](O)[C@H](OC(=O)/C(C)=C/C)[C@H]3OC(C)=O)[C@H](OC)[C@@H]12 | > 50 | Non-Toxic |  | 
O=c1c(O)c(-c2ccc(O)c(O)c2)oc2cc(O)cc(O)c12 [QUERCETIN] | 2.45 |  |  | 
CC(=O)O[C@H]1[C@H](O[C@]2(C)CC[C@@H]3[C@H]([C@@H]4[C@H](C)CC[C@@H]42)C3(C)C)O[C@H](CO)[C@@H](O)[C@@H]1O | > 50 | Non-Toxic |  | 
C=C1C[C@H](O[C@@H]2O[C@H](C)[C@H](O)[C@H](OC(=O)/C(C)=C/C)[C@H]2OC(C)=O)[C@H]2[C@@H]([C@H]3[C@@H]1CC[C@]3(C)O)C2(C)C | > 50 | Non-Toxic |  | 
CC(C)[C@@H]1CC[C@@]2(C)[C@H](O)CC[C@](C)(O)[C@@H]2[C@H]1O | > 50 | Non-Toxic |  | 
C=C1C[C@@H](O[C@@H]2O[C@H](C)[C@H](O)[C@H](OC(=O)/C(C)=C/C)[C@H]2OC(C)=O)[C@@H](C(C)C)[C@@H]2C=C(C)CC[C@@H]12 | > 50 | Non-Toxic |  | 
C=C1C[C@H](O[C@@H]2O[C@H](C)[C@H](O)[C@H](O)[C@H]2OC(C)=O)[C@H]2[C@@H]([C@H]3[C@@H]1CC[C@]3(C)O)C2(C)C | > 50 | Non-Toxic |  | 
C[C@@H]1CC[C@H]2[C@@H]1[C@H]1[C@@H](CC[C@@]2(C)O)C1(C)C | > 50 | Non-Toxic |  | 
C/C=C(/C)C(=O)O[C@H]1[C@H](O)[C@@H](CO)O[C@@H](O[C@]2(C)CC[C@@H]3[C@H]([C@@H]4[C@H](C)CC[C@@H]42)C3(C)C)[C@@H]1OC(C)=O | 6.27 | Non-Toxic | Active | Active
C/C=C(/C)C(=O)O[C@H]1[C@H](O)[C@@H](OC(C)=O)[C@H](O[C@]2(C)CC[C@@H]3[C@H]([C@@H]4[C@H](C)CC[C@@H]42)C3(C)C)O[C@@H]1CO | 21.5 | Non-Toxic |  | 
